For ten compounds, Dmax, DC50 and EC50 results are on record in patent US20250243180A1, “TARGETED PROTEIN DEGRADATION” (Monte Rosa Therapeutics AG, priority 2023, published 2025).

Usually Dmax stands for the greatest extent of degradation seen. What is called DC50 is the concentration at which degradation of the target reaches its halfway point. For orientation: EC50 means the midpoint of the concentration-response curve.

Where two headings read alike, the source gives them in different places.

For one experiment, the target named is NEK7 (Homo sapiens (Human), UniProt Q8TDX7+Q96SW2). The experiment in a line: NEK7 NanoBiT degradation assay in Cal51 NEK7 NanoBiT cell line. Format: cell-based. Particulars: Cal51 NEK7 NanoBiT cells, 24 hours; for Dmax: CAL-51. The procedure, abridged:
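EC50 comes from a 4-parameter fit of control-normalized luminescence. The luminescence reports HiBiT-NEK7 (endogenous knock-in) complemented by stably expressed LgBiT in Cal51 cells after 24 h compound exposure at 37 °C. Final concentrations ran 1 μM to 0.05 nM, with Endurazine substrate present in the medium throughout.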

The next experiment addresses CRBN-DDB1 (Homo sapiens (Human), UniProt Q96SW2). The experiment in a line: Compound binding to CRBN by HTRF assay. The procedure, abridged:
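Ki calculated via Cheng-Prusoff from geometric-mean EC50 values, after normalizing the HTRF ratio to lenalidomide (active) and DMSO (neutral) controls. Compounds (11 points, 1:3 steps) incubated 30 min at ambient temperature with CRBN-DDB1 2.5 nM, anti-His Tb cryptate and Cy5-thalidomide tracer 100 nM.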
On the technique in general: Time-resolved FRET reads energy transfer from a long-lived donor to a nearby acceptor.

Where [1] appears, read: NEK7 degradation, read-out: NanoBiT Dmax.
[2] abbreviates: NEK7 degradation, read-out: NanoBiT DC50.

Chain of CRBN-DDB1 (Q96SW2 whole entry): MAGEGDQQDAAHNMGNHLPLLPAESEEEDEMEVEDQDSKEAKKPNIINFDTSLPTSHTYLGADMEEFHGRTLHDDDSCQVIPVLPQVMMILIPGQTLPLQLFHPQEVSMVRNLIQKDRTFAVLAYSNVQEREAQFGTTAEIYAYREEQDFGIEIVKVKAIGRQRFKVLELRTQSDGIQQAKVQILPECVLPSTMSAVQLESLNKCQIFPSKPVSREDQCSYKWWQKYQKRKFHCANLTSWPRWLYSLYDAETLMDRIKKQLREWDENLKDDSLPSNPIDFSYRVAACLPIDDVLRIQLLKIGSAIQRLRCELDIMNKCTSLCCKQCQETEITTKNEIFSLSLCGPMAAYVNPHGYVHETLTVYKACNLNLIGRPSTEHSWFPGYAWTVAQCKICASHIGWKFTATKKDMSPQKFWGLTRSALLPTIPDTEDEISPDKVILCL
Chain of CRBN-DDB1 (Q16531 whole entry partner): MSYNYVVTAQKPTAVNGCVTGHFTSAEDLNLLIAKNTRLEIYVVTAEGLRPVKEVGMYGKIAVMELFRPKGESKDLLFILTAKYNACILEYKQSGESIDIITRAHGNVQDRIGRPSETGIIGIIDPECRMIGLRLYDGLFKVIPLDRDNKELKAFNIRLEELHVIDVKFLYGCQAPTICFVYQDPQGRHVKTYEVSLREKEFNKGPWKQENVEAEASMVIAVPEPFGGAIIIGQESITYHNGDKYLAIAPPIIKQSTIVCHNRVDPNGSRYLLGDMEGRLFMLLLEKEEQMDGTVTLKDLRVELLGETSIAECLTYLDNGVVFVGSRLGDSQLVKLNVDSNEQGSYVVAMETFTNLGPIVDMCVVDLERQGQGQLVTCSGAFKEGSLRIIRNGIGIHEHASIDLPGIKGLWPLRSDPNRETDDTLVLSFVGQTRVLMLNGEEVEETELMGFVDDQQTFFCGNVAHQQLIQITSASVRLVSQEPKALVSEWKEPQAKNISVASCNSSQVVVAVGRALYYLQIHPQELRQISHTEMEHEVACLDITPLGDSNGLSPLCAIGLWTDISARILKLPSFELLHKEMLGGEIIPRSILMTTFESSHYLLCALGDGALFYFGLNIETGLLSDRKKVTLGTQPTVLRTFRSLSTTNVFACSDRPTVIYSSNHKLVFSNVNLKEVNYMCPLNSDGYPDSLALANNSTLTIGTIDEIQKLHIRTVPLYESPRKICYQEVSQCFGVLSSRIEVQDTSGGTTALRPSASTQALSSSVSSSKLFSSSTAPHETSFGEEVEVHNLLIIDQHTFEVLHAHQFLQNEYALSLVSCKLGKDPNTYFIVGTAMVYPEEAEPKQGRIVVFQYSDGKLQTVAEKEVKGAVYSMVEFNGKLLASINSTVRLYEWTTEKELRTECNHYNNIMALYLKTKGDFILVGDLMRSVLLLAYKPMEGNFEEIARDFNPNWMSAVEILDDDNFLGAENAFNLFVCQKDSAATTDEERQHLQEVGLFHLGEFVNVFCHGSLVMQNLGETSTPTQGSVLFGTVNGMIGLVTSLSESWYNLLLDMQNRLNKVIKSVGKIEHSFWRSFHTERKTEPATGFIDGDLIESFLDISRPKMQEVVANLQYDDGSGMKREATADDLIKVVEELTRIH
Chain of NEK7 (Q8TDX7 whole entry): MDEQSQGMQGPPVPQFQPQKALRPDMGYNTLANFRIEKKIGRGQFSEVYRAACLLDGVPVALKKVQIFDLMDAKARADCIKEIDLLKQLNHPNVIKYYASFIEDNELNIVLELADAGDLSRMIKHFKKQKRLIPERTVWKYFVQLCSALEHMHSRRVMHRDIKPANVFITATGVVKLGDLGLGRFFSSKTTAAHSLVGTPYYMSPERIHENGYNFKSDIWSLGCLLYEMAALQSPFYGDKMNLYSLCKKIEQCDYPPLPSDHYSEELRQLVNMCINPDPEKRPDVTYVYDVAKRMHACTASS
Chain of NEK7 (Q96SW2 whole entry): as the sequence (Q96SW2 whole entry) above
Chain of NEK7 (Q16531 2-1140 partner): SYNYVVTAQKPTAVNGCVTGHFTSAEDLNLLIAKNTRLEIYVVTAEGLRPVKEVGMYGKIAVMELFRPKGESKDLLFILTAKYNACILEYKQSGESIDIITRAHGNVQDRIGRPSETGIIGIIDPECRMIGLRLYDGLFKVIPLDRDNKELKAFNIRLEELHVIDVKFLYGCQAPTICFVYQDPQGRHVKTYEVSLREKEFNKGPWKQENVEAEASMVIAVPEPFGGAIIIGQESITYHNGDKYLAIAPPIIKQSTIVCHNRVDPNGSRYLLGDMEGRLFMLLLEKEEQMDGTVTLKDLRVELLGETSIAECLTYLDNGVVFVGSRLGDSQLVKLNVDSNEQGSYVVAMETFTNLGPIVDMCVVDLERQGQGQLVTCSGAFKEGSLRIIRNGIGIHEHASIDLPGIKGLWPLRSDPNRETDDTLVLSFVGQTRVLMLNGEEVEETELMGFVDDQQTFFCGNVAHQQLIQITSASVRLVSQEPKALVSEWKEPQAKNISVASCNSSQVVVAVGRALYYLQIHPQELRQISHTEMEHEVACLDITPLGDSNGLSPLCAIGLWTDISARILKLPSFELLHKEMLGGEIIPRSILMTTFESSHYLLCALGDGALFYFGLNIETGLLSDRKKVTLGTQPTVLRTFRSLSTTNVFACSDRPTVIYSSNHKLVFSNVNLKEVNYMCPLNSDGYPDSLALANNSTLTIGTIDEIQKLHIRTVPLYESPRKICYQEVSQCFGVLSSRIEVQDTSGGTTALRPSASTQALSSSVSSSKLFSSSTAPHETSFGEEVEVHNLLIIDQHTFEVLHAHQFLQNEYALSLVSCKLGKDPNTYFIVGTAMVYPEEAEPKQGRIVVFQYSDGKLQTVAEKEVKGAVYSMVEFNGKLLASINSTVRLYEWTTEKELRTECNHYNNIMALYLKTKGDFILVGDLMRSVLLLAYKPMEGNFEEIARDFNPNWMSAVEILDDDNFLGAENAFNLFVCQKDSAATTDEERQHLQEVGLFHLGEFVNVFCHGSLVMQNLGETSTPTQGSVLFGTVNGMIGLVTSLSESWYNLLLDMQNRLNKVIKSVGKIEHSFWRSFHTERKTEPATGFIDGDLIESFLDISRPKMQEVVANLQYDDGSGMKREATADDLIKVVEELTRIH

`COCCc1cnc(C(C)(C)C(=O)NCc2cc(Cl)c(C3CCC(=O)NC3=O)c(Cl)c2)nc1` (stereo not drawn) [Compound 245, N-(3,5-dichloro-4-(2,6-dioxopiperidin-3-yl)benzyl)-2-(5-(2-methoxyethyl)pyrimidin-2-yl)-2-methylpropanamide]: the maximal degradation (Dmax) on NEK7 (read-out: NEK7 NanoBiT Dmax) was 48%; on NEK7 (setting [1]), at most 50%. For the same compound, the values for the DC50 on NEK7 (read-out: NEK7 NanoBiT DC50) and on NEK7 (setting [2]) were 672 nM and 100 to 1000 nM, respectively. Further, the EC50 on CRBN-DDB1 was 160 nM; at CRBN-DDB1 (HTRF class, Cereblon binding), 100 to 1000 nM.
As to `CC(C)(C(=O)NCc1cc(Cl)c(C2CCC(=O)NC2=O)c(Cl)c1)c1ccc2ncoc2c1` (stereo not drawn) [Compound 10, 2-(benzo[d]oxazol-6-yl)-N-(3,5-dichloro-4-(2,6-dioxopiperidin-3-yl)benzyl)-2-methylpropanamide], the Dmax is 97% on NEK7 (read-out: NEK7 NanoBiT Dmax) and over 75% on NEK7 (setting [1]). Moreover, the DC50 on NEK7 (read-out: NEK7 NanoBiT DC50) is 1 nM; at NEK7 (setting [2]), at most 100 nM. The EC50 on CRBN-DDB1 is 60 nM; at CRBN-DDB1 (HTRF class, Cereblon binding), at most 100 nM.
In the case of `Cc1cnc(C(C)(C)C(=O)NCc2cc(F)c(C3CCC(=O)NC3=O)c(Cl)c2)nc1` (stereo not drawn) [Compound 253], the Dmax on NEK7 (read-out: NEK7 NanoBiT Dmax) is 45%; on NEK7 (setting [1]), at most 50%. For the same compound, the half-maximal degradation concentration (DC50) on NEK7 (read-out: NEK7 NanoBiT DC50) is 778 nM; on NEK7 (setting [2]), 100 to 1000 nM. Also, the EC50 was 140 nM on CRBN-DDB1 and 100 to 1000 nM on CRBN-DDB1 (HTRF class, Cereblon binding).
For the compound `CC(C)(C(=O)NCc1cc(F)c(C2CCC(=O)NC2=O)c(Cl)c1)c1ccccc1` (stereo not drawn) [Compound 31], the results for the Dmax at NEK7 (read-out: NEK7 NanoBiT Dmax) and on NEK7 (setting [1]) were 93% and over 75%, respectively. Moreover, the DC50 at NEK7 (read-out: NEK7 NanoBiT DC50) was 6 nM; at NEK7 (setting [2]), at most 100 nM. The EC50 on CRBN-DDB1 was 130 nM; on CRBN-DDB1 (HTRF class, Cereblon binding), 100 to 1000 nM.
With `CC(C)(C(=O)NCc1cc(F)c(C2CCC(=O)NC2=O)c(Cl)c1)c1ccc(C(F)F)nn1` (stereo not drawn) [Compound 280], the Dmax at NEK7 (read-out: NEK7 NanoBiT Dmax) is 60%; at NEK7 (setting [1]), 50 to 75%. Besides, the DC50 at NEK7 (read-out: NEK7 NanoBiT DC50) was 143 nM; on NEK7 (setting [2]), 100 to 1000 nM. The concentration for a half-maximal effect (EC50) at CRBN-DDB1 was 290 nM; at CRBN-DDB1 (HTRF class, Cereblon binding), 100 to 1000 nM.
As for `CC(C)(C(=O)NCc1cc(Cl)c(C2CCC(=O)NC2=O)c(Cl)c1)c1cnc(Cl)cn1` (stereo not drawn) [Compound 248], the greatest degradation seen (Dmax) at NEK7 (read-out: NEK7 NanoBiT Dmax) is 95%; on NEK7 (setting [1]), over 75%. Besides, the DC50 was 2 nM on NEK7 (read-out: NEK7 NanoBiT DC50) and at most 100 nM on NEK7 (setting [2]). In addition, the EC50 at CRBN-DDB1 is 70 nM; on CRBN-DDB1 (HTRF class, Cereblon binding), at most 100 nM.
In the case of `O=C1CCC(c2c(Cl)cc(CNC(=O)C3(c4ccc5[nH]ncc5c4)CCOCC3)cc2Cl)C(=O)N1` (stereo not drawn) [Compound 132, N-(3,5-dichloro-4-(2,6-dioxopiperidin-3-yl)benzyl)-4-(1H-indazol-5-yl)tetrahydro-2H-pyran-4-carboxamide], the results for the Dmax on NEK7 (read-out: NEK7 NanoBiT Dmax) and at NEK7 (setting [1]) were 92% and over 75%, respectively. The DC50 was 5 nM at NEK7 (read-out: NEK7 NanoBiT DC50) and at most 100 nM at NEK7 (setting [2]). Further, the EC50 is 50 nM at CRBN-DDB1 and at most 100 nM on CRBN-DDB1 (HTRF class, Cereblon binding).
Turning to `Cc1cnc(C(C)(C)C(=O)NCc2cc(Cl)c([C@H]3CCC(=O)NC3=O)c(Cl)c2)nc1` (single isomer, unassigned) [Compound 155], the Dmax was 75% on NEK7 (read-out: NEK7 NanoBiT Dmax) and 50 to 75% on NEK7 (setting [1]). Moreover, the 50% degradation concentration (DC50) on NEK7 (read-out: NEK7 NanoBiT DC50) is 186 nM; at NEK7 (setting [2]), 100 to 1000 nM. Also, the EC50 is at least 10000 nM on CRBN-DDB1 and over 1000 nM on CRBN-DDB1 (HTRF class, Cereblon binding).
For the compound `CC(F)(F)c1cnc(C(C)(C)C(=O)NCc2cc(Cl)c(C3CCC(=O)NC3=O)c(Cl)c2)nc1` (stereo not drawn) [Compound 187], the Dmax on NEK7 (read-out: NEK7 NanoBiT Dmax) was 93%; on NEK7 (setting [1]), over 75%. For the same compound, the DC50 at NEK7 (read-out: NEK7 NanoBiT DC50) is 4 nM; at NEK7 (setting [2]) it was at most 100 nM. The concentration giving a half-maximal response (EC50) on CRBN-DDB1 was 100 nM; on CRBN-DDB1 (HTRF class, Cereblon binding), 100 to 1000 nM.
As for `CC(C)(C(=O)NCc1cc(Cl)c(C2CCC(=O)NC2=O)c(Cl)c1)c1ccc2occc2c1` (stereo not drawn) [Compound 87], the Dmax was 97% on NEK7 (read-out: NEK7 NanoBiT Dmax) and over 75% on NEK7 (setting [1]). For the same compound, the results for the DC50 at NEK7 (read-out: NEK7 NanoBiT DC50) and on NEK7 (setting [2]) were 0.1 nM and at most 100 nM, respectively. The EC50 at CRBN-DDB1 was 30 nM; at CRBN-DDB1 (HTRF class, Cereblon binding) it was at most 100 nM.
